What was measured:
[1] = test system: NSCLC tumors expressing EGFR G719S; assay: PDX tumor growth, EGFR G719S model; format: in vivo, NSG mice; conditions: mice harboring PDXs with mutations
Procedure: Dot plot of mutant/WT IC50 values of Ba/F3 cells expressing PACC mutations and treated with indicated classes of EGFR TKIs. […] Bars are representative of average mutant/WT IC50 values±SEM for each class of EGFR TKI and all PACC cell lines. p-values were determined by ANOVA analysis with unequal SD as determined by Brown-Forsythe test to determined differences in SD. Holm-Sidak's multiple comparisons test was used to determine differences between groups. […] Tumors were measured three times per week and symbols are average of tumor volumes±SEM. Mice were randomized into six groups. Mice received drug 5 days per week, and mice were euthanized at day 28 to harvest tumors. […] Heat map with unsupervised hierarchical clustering of log (Mutant/WT) ratios from Ba/F3 cells expressing indicated mutations after 72 hours of indicated drug treatment. Squares are representative of the average of n=3 replicates. […] Bars are representative of average mutant/WT IC50 values±SEM for each class of EGFR TKI and indicated cell lines. p-values were determined by ANOVA analysis with unequal SD as determined by Brown-Forsythe test to determined differences in SD. […]
Dot plot of percent change in tumor volume on day 28 of tumors described in FIG. 3C. […] Statistical differences were determined by ordinary one-way ANOVA with post-hoc Tukey's multiple comparisons test to determined differences between groups. […]

[2] = test system: classical EGFR mutant NSCLC; conditions: Phase III; treatment-naive patients; cited from earlier work
[3] = test system: NSCLC harboring atypical EGFR mutations; conditions: Phase II KCSG-LU15-09; treatment-naive patients harboring atypical EGFR mutations; cited from earlier work

C=CC(=O)Nc1cc(Nc2nccc(-c3cn(C)c4ccccc34)n2)c(OC)cc1N(C)CCN(C)C [Osimertinib]
tumor sensitivity in vivo [1]: resistant | median overall survival (mOS) [2]: 38.6 months | median progression free survival (mPFS) [2]: 18.9 months | objective response rate (ORR) [2]: 80% | ORR [3]: 50% | mPFS [3]: 8.2 months

Source: patent US20240384350A1, “METHODS OF TREATING CANCER WITH KINASE INHIBITORS” (BOARD OF REGENTS, THE UNIVERSITY OF TEXAS SYSTEM, priority 2021, published 2024)
